Reference: patent publication US11345745B2, “Peptide-hinge-free flexible antibody-like molecule” (BIOMOLECULAR HOLDINGS LLC, priority 2011, dated 2022)

Test system: anti-Aβ mAb (6E10)
Assay: Surface plasmon resonance (SPR) binding to immobilized anti-Aβ monoclonal antibody 6E10
Details: 6E10 immobilized on the surface of the SPR chip
Method: SPR tests were carried out using a Biacore T100 instrument (Biacore AB, Uppsala, Sweden). A ligand, biotin-labeled 6E10 monoclonal antibody (Covance, Princeton, N.J.), was immobilized at a concentration of 10 mg/ml in PBS onto a CAP sensor chip, Series S, using a Biotin CAPture Kit (GE Healthcare, Piscataway, N.J.). The sensor chip was loaded with a streptavidin capture reagent and regenerated according to the manufacturer's instruction, including an additional regeneration step using 0.25 MNaOH in 30% acetonitrile. Binding of Aβ symmetroadhesins and Aβ peptides was carried out at 25° C. in 10 mM Hepes buffer, pH 7,4, 150 mM NaCl, 3 mM EDTA, and 0.005 vol % Tween-20. Data was evaluated using Biacore T100 Evaluation Software, version 2.0.3.
Accordingly, the present inventors characterized the binding of the Aβ symmetroadhesins of the present inventors to one of these antibodies (6E10) using surface plasmon resonance (SPR). The present inventors compared the binding of Aβ peptides containing the [sequence] sequence (SEQ ID No. 2) which were expected to bind to 6E10 in a one-handed manner.

## Fc6: recombinant human IgG1 Fc protein beginning at 226CPPC core hinge, N-terminal cysteine, expressed in CHO cells
  binding to immobilized 6E10 (observed or not): No binding
